The target in assay [1] is T1, glucocorticoid/Heliothis ecdysone chimeric receptor (UniProt O18473+P04150).
T1 sequence (P04150+O18473 with tags, fused parts or gaps): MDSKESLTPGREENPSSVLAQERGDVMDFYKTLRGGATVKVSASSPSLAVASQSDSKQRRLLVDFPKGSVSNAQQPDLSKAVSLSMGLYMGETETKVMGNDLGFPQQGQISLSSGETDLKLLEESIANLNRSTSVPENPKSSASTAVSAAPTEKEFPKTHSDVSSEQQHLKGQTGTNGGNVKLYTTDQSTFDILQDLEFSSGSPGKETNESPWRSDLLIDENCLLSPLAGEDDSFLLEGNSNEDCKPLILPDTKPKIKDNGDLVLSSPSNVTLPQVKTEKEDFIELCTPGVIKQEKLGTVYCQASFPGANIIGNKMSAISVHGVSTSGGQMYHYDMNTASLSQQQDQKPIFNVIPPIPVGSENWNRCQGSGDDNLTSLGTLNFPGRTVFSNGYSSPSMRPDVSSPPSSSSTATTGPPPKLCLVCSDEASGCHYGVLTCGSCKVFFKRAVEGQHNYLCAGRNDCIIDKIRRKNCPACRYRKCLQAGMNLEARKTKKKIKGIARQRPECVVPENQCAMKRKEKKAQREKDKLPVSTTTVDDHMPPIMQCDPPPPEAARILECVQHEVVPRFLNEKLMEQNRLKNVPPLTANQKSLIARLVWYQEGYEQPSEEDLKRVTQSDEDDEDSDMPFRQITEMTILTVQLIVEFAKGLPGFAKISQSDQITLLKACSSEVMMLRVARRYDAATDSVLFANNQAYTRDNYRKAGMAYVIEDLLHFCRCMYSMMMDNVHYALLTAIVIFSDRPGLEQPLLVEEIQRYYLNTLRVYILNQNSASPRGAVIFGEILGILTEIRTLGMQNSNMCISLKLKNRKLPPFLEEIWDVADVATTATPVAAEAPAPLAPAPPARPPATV
Put plainly: Tobacco mesophyll protoplast GUS reporter assay with chimeric effector and p221.9GRE6. On the set-up: expressed in transfected cells; host or cells: maize protoplasts (A5); tobacco mesophyll protoplasts (A6); CHO-K1 (A7); HEK293 (A8); stably transformed tobacco plants (A9). It is filed as cell-based, Heliothis virescens. The note with it: tobacco protoplasts, 10 μM. On the procedure:
It is the aim in this example to show the generic application to plants of the glucocorticoid/Heliothis ecdysone chimeric receptor switch system. Tobacco shoot cultures cv. Samsun, were maintained on solidified MS medium +3% sucrose in a controlled environment room (16 hour day/8 hour night at 25° C., 55% R.H), were used as the source material for protoplasts. Leaves were sliced parallel to the mid-rib, discarding any large veins and the slices were placed in CPW13M 13% Mannitol, pH 5.6, ˜860 mmol/kg) for ˜1 hour to pre-plasmolyse the cells. This solution was replaced with enzyme mixture (0.2% Cellulase R10, 0.05% Macerozyme R10 in CPW9M (CPW13M but 9% Mannitol), pH 5.6, ˜600 mmol/kg) and incubated in the dark at 25° C. overnight (˜16 hours). Following digestion, the tissue was teased apart with forceps and any large undigested pieces were discarded. The enzyme mixture was passed through a 75 μm sieve and the filtrate was centrifuged at 600 rpm for 3.5 minutes, discarding the supernatant. The pellet was resuspended in 0.6 M sucrose solution and centrifuged at 600 rpm for 10 minutes. The floating layer of protoplasts was removed using a Pasteur pipette and diluted with CPW9M (pH 5.6, ˜560 mmol/kg). The protoplasts were again pelleted by centrifuging at 600 rpm for 3.5 minutes, resuspended in CPW9M and counted. A modified version of the PEG-mediated transformation above was carried out. […]
(In a reporter assay the amount or activity of a reporter protein is the signal.)

For another assay, the system named is Spodoptera exigua. The conditions noted are these: compared with Heliothis; cited from earlier work.

Marker gene activity and sensitivity of species data for one molecule are collected here from US7183061B2, “Method of expressing Heliothis ecdysone receptor fusion protein” (Syngenta Limited, priority 1996, dated 2007).

The structures appear in SMILES notation.

As to `CCc1ccc(C(=O)NN(C(=O)c2cc(C)cc(C)c2)C(C)(C)C)cc1` [RH5992, 3,5-dimethylbenzoic acid 1-1(1,1-dimethylethyl)-2(4-ethylbenzoyl)hydrazide], in assay [1], the marker gene activity entry is “significant elevation of marker gene activity”. The sensitivity of species entry in the assay with Spodoptera exigua is given as “more sensitive to RH5992 than Heliothis”.
